Experimental findings from PubChem BioAssay (NCI) are described below.

Among the test systems are CAKI-1 renal; COLO 205 colon; SK-OV-3 ovarian; HOP-92 NSCLC; 786-0 renal; SF-268 CNS; T-47D breast; HS 578T breast; MOLT-4 leukemia; SK-MEL-2 melanoma.
What all share (assay): NCI tumour cell line growth inhibition, 48 h

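Interpolation was linear, between the two tested concentrations surrounding the appropriate level; five concentrations were tested over 48 hours in 96-well plates. GI50: concentration for 50% inhibition of growth. At the TGI there is no net growth.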

As for `COc1ccc2cc(-c3cnc4nonc4n3)ccc2c1`, the GI50 with CAKI-1 renal was 2.83 µM; in the assay with COLO 205 colon it was 3.12 µM; with SK-OV-3 ovarian, 10.8 µM; in the assay with HOP-92 NSCLC, 16.1 µM; with 786-0 renal it was 4.17 µM; in the assay with SF-268 CNS, 8.59 µM. Besides, the GI50 with T-47D breast was 1.99 µM; with HS 578T breast it was 1.23 µM; in the assay with MOLT-4 leukemia, 1.92 µM; in the assay with SK-MEL-2 melanoma, 3.66 µM. In addition, the TGI with CAKI-1 renal, with COLO 205 colon, with SK-OV-3 ovarian, in the assay on HOP-92 NSCLC, in the assay with 786-0 renal and in the assay on SF-268 CNS was greater than 100 µM in each case. Also, the TGI in the assay on T-47D breast, in the assay on HS 578T breast, in the assay on MOLT-4 leukemia and with SK-MEL-2 melanoma was greater than 100 µM throughout.
